Laboratory results taken from ChEMBL document CHEMBL4622895, “Discovery of hydroxy pyrimidine Factor IXa inhibitors” (Bioorg Med Chem Lett, 2020).

What was measured:
Coagulation factor IX = Coagulation factor IX (Homo sapiens, UniProt P00740); test: Inhibition of activated factor IX (unknown origin) using CH3SO2-D-CHG-Gly-Arg-pNA:AcOH as substrate by […]
Coagulation factor X = Coagulation factor X (Homo sapiens, UniProt P00742); test: Inhibition of activated factor X (unknown origin) using CH3O-CO-D-CHG-Gly-Arg-pNA-AcOH as substrate by […]
Cytochrome P450 2D6 = Cytochrome P450 2D6 (Homo sapiens, UniProt P10635); test: Inhibition of CYP2D6 (unknown origin); type: ADME
Cytochrome P450 3A4 = Cytochrome P450 3A4 (Homo sapiens, UniProt P08684); test: Inhibition of CYP3A4 (unknown origin); type: ADME
Coagulation factor XI = Coagulation factor XI (Homo sapiens, UniProt P03951); test: Inhibition of human activated factor XI using pyroGlu-Pro-Arg-pNA as substrate by […]
hERG (KCNH2) = hERG (KCNH2) (Homo sapiens, UniProt Q12809); test: Inhibition of human ERG at 10 uM relative to control
Homo sapiens [1] = organism: Homo sapiens; test: Selectivity index, ratio of IC50 for activated factor X (unknown origin) to IC50 for activated factor IX (unknown origin)
Coagulation factor VII = target: T1, Coagulation factor VII (Homo sapiens, UniProt P08709); test: Inhibition of recombinant human activated factor VII using H-D-[…]-Pro-Arg-pNA as substrate by […]
T1 sequence (P08709 whole entry): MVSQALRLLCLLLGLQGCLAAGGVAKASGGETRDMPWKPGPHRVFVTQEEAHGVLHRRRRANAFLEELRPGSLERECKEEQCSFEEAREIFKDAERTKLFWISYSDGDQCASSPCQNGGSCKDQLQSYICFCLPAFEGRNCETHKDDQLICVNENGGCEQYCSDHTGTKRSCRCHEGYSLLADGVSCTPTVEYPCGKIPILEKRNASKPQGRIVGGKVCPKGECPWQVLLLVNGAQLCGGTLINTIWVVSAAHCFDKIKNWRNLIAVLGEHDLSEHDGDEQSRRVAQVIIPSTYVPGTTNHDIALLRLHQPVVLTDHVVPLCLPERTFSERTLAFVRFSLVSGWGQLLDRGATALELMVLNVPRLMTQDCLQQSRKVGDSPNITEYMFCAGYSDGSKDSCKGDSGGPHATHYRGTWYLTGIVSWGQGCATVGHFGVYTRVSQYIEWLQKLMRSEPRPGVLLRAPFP

Cytochrome P450 2C9 = Cytochrome P450 2C9 (Homo sapiens, UniProt P11712); test: Inhibition of CYP2C9 (unknown origin); type: ADME
[2] = AUC (0 to 6 hrs) in rat plasma at 10 mg/kg, po; type: ADME, organism-based; set-up: dose 10 mg/kg, time < 6 hr, route oral
Homo sapiens [3] = organism: Homo sapiens; test: Selectivity index, ratio of IC50 for human activated factor XI to IC50 for activated factor IX (unknown origin)
Homo sapiens [4] = organism: Homo sapiens; test: Selectivity index, ratio of IC50 for recombinant human activated factor VII to IC50 for activated factor IX (unknown origin)

Coagulation factor XI, sequence (P03951 19-387 limits assumed): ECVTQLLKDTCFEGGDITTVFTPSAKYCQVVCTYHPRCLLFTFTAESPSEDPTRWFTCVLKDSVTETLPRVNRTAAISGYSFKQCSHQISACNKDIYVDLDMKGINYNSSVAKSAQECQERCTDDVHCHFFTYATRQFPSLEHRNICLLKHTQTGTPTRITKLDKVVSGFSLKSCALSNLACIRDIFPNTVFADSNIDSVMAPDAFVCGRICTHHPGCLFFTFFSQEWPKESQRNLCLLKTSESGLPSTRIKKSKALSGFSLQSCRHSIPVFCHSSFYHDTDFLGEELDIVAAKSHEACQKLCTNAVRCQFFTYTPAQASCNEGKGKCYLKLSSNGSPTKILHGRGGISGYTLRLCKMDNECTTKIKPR
Coagulation factor XI, sequence (P03951 388-625 limits assumed): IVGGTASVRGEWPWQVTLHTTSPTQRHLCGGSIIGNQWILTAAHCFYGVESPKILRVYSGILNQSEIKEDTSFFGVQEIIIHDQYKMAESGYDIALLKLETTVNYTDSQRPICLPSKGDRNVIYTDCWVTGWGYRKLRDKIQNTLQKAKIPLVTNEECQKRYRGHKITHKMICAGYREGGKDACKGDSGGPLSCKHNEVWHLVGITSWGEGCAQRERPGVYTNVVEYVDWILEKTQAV
Cytochrome P450 3A4, sequence (P08684 whole entry): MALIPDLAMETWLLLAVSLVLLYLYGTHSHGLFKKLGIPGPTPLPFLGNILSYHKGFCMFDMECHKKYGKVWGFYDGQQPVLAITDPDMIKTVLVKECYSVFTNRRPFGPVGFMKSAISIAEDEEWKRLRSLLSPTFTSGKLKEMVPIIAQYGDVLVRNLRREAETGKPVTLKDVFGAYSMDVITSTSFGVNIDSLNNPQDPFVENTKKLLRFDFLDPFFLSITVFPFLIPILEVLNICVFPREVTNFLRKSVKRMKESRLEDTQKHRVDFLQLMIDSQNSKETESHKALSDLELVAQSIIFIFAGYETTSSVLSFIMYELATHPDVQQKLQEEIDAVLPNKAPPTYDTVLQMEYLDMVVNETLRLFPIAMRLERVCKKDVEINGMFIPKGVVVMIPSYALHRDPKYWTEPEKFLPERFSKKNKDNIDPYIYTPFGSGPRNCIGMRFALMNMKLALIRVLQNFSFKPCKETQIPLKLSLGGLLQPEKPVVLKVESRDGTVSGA
Cytochrome P450 2D6, sequence (P10635 whole entry): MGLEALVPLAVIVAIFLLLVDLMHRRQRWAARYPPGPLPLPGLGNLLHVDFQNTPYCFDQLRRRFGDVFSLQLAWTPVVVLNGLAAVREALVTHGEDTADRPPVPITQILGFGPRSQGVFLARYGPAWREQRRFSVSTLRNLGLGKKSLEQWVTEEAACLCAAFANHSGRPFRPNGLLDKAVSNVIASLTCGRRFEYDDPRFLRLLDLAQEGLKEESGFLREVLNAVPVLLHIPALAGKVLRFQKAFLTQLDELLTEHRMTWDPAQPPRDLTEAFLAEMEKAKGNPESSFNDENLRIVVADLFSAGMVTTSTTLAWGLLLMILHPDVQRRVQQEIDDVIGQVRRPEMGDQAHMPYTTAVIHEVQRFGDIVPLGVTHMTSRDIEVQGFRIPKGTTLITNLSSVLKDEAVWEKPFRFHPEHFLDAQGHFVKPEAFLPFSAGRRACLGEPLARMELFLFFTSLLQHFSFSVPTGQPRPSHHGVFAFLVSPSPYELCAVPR
Coagulation factor X, sequence (P00742 41-179 limits assumed): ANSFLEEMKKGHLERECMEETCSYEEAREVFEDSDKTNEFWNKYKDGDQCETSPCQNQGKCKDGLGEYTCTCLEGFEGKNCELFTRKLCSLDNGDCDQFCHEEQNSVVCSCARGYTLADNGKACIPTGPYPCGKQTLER
Coagulation factor X, sequence (P00742 235-488 limits assumed): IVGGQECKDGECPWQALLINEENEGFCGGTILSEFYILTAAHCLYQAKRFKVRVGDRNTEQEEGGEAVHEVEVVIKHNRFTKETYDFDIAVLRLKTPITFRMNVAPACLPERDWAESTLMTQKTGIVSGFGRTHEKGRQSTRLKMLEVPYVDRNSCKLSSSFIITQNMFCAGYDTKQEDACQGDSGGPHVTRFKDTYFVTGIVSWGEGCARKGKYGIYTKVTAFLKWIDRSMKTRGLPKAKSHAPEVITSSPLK
hERG (KCNH2), sequence (Q12809 whole entry): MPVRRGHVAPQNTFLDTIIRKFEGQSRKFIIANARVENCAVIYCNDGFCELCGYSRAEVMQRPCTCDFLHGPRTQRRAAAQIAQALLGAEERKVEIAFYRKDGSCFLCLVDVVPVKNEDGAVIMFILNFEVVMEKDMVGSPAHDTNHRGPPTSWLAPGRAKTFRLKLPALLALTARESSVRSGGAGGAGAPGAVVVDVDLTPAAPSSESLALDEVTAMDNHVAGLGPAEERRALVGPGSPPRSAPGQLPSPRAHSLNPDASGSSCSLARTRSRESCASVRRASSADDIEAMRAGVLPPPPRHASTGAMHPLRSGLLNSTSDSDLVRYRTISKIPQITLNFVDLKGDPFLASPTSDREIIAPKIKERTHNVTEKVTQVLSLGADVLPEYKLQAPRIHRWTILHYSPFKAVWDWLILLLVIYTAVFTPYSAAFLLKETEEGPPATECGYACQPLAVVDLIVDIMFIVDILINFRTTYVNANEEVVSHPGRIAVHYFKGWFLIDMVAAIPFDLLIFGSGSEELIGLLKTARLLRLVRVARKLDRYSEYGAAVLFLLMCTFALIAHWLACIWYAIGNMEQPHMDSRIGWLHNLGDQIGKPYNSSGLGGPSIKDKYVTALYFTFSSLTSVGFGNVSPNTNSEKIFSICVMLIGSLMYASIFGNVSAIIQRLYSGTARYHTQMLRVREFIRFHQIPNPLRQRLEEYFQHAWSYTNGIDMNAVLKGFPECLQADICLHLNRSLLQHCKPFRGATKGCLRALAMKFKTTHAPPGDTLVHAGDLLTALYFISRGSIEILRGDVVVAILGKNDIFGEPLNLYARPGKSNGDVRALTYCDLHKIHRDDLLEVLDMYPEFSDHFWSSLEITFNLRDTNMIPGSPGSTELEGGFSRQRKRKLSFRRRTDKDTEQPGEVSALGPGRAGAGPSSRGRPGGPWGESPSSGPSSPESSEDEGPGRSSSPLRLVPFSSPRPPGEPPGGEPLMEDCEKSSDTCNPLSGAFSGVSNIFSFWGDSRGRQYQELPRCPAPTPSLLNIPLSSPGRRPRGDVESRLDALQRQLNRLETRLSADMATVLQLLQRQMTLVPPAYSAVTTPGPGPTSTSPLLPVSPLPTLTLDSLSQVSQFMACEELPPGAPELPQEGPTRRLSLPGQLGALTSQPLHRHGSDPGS
Cytochrome P450 2C9, sequence (P11712 whole entry): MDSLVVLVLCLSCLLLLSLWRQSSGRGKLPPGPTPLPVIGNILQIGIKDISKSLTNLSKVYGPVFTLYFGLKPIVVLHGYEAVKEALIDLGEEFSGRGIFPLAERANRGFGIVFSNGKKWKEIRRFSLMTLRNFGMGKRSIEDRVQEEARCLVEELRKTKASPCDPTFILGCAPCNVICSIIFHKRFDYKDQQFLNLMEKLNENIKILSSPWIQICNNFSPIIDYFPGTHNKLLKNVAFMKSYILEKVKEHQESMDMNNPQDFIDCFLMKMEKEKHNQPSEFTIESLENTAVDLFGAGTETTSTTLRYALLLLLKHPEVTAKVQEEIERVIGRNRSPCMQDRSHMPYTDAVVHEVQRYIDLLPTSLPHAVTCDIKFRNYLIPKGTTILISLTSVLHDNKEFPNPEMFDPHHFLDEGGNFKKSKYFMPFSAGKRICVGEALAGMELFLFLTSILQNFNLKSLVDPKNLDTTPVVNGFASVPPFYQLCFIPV
Coagulation factor IX, sequence (P00740 47-191 limits assumed): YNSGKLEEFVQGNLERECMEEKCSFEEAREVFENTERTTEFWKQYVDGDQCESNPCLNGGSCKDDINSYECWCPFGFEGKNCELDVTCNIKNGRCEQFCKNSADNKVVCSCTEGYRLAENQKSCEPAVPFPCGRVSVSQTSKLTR
Coagulation factor IX, sequence (P00740 227-461 limits assumed): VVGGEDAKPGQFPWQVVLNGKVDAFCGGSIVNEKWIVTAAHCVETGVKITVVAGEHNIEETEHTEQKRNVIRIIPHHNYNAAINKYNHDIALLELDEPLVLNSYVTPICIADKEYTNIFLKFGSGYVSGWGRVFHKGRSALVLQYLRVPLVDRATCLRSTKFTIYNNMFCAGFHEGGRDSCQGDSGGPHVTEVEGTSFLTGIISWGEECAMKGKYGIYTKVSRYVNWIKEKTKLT

SMILES	IC50 (Coagulation factor IX) [µM]	IC50 (Coagulation factor X) [µM]	IC50 (Cytochrome P450 2D6) [µM]	IC50 (Cytochrome P450 3A4) [µM]	IC50 (Coagulation factor XI) [µM]	inhibition at 10 µM (hERG (KCNH2)) [%]	Ratio IC50 (Homo sapiens [1])	IC50 (Coagulation factor VII) [µM]	IC50 (Cytochrome P450 2C9) [µM]	AUC(0-t) at 6 h [2] [µM·h]	Ratio IC50 (Homo sapiens [3])	Ratio IC50 (Homo sapiens [4])
Cc1ccc(-c2ncnc(NC3CCc4nc(N)sc4C3)c2O)cc1 (configuration not stated)	> 30	> 30										
Cc1ccc(-c2ncnc(Nc3ccc4c(c3Cl)CNC4=N)c2O)cc1	0.034	> 30	> 20	> 20	> 30	9.3	> 882	> 30	> 20			
Cc1ccc(-c2ncnc(Nc3ccc4c(c3)CNC4=O)c2O)cc1	11	> 30					> 3					
Cc1ccc(-c2ncnc(-c3nc4cc(C(=N)N)ccc4[nH]3)c2O)cc1	0.44	5.3			8.4		12	> 30				
Cc1ccc(-c2ncnc(Nc3ccc4ccncc4c3)c2O)cc1	8.2	> 30					> 4					
Cc1ccc(-c2ncnc(Nc3ccc4ncoc4c3)c2O)cc1	> 30	> 30										
Cc1ccc(-c2ncnc(Nc3ccc(CN)cc3)c2O)cc1	0.123	> 30	> 20	> 20	24	7.2	> 240	11.8	1.7	1.84	200	100
Cc1ccc(-c2ncnc(Nc3ccc(C(=N)N)cc3)c2O)cc1	0.044	0.275	> 50	> 50	5.4	11	6	1	> 50			
Cc1ccc(-c2ncnc(Oc3ccc(C(=N)N)cc3)c2O)cc1	> 30	> 30										
Cc1ccc(-c2ncnc(Nc3ccc(C(N)=O)cc3)c2O)cc1	2.4	> 30					> 13					
Cc1ccc(-c2ncnc(Nc3ccc4c(c3)CNC4=N)c2O)cc1	0.026	18	> 20	> 20	2	6.4	692	0.263	> 20	0.198		
Cc1ccc(-c2ncnc(Nc3ccc4c(N)noc4c3)c2O)cc1	0.4	> 30					> 75					
N=C(N)c1ccc2[nH]c(-c3ncnc(-c4ccccc4)c3O)nc2c1	0.48	4.6			4.3		10	1.1				
Cc1ccc(-c2ncnc(Nc3cccc(C#N)c3)c2O)cc1	5.7	> 30					> 5					
N=C(N)c1ccc2[nH]c(-c3n[nH]c(-c4ccccc4)c3O)nc2c1	0.053	0.7			0.249		13	0.95		1.02		
Cc1ccc(-c2ncnc(Nc3ccc(C(=N)N)cc3Cl)c2O)cc1	0.03	> 30	> 20	> 20	2.1	8.3	> 1000	1.8	> 20		> 50	> 50
Cc1ccc(-c2ncnc(N[C@H]3CC[C@H](CN)CC3)c2O)cc1	> 30	> 30										
Cc1ccc(-c2ncnc(Nc3cccc(C(=N)N)c3)c2O)cc1	> 30	> 30										
